CS(=O)(=O)c1ccc(F)cc1 showed a solubility (mole fraction) (in acetone, 290.53 K) of 0.226, a solubility (mole fraction) (in acetone, 298.3 K) of 0.282 and a solubility (mole fraction) (in acetone, 304.2 K) of 0.331. It also gave a solubility (mole fraction) (in chloroform, 288.4 K) of 0.229, a solubility (mole fraction) (in chloroform, 293.25 K) of 0.262 and a solubility (mole fraction) (in chloroform, 299.93 K) of 0.312. The solubility (mole fraction) (in chloroform, 305 K) was 0.352, the solubility (mole fraction) (in ethanol, 291.07 K) was 0.0162 and the solubility (mole fraction) (in ethanol, 297.34 K) was 0.0302. For the same molecule, the solubility (mole fraction) (in ethanol, 303.07 K) was 0.0471, the solubility (mole fraction) (in ethanol, 308.66 K) was 0.0744 and the solubility (mole fraction) (in ethyl acetate, 293.28 K) was 0.189. The solubility (mole fraction) (in ethyl acetate, 299.67 K) was 0.23, the solubility (mole fraction) (in ethyl acetate, 305.75 K) was 0.278 and the solubility (mole fraction) (in ethyl acetate, 313.05 K) was 0.35. It also gave a solubility (mole fraction) (in toluene, 290.84 K) of 0.0422, a solubility (mole fraction) (in toluene, 298.86 K) of 0.0744 and a solubility (mole fraction) (in toluene, 304.15 K) of 0.105. The solubility (mole fraction) (in toluene, 306.87 K) was 0.125.

From BigSolDB 2.1
